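Protocol summary: plate cells (96-well), add compound at 5 concentrations, incubate 48 h, interpolate endpoints linearly. Here, GI50 denotes the concentration required for 50% inhibition of growth.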 Activity calls are given as the source filed them. No stated cut-off is given here; in the data, active = GI50 up to about 1.1 µM and inactive = higher.
Columns and labels:
Assay in all cases: inhibition of tumour cell growth, NCI panel, 48 h
786-0 = system: 786-0
CAKI-1 = system: CAKI-1
COLO 205 = system: COLO 205
HCT-116 = system: HCT-116
HCT-15 = system: HCT-15
HOP-62 = system: HOP-62
IGROV-1 = system: IGROV-1
M14 = system: M14
MCF7 = system: MCF7
MOLT-4 = system: MOLT-4
OVCAR-5 = system: OVCAR-5
RPMI-8226 = system: RPMI-8226
SF-295 = system: SF-295
SF-539 = system: SF-539
SK-MEL-28 = system: SK-MEL-28
SK-MEL-5 = system: SK-MEL-5
SN12C = system: SN12C
SNB-75 = system: SNB-75
U-251 = system: U-251
UACC-62 = system: UACC-62

SMILES | GI50 (786-0) | GI50 (CAKI-1) | GI50 (COLO 205) | GI50 (HCT-116) | GI50 (HCT-15) [µM] | GI50 (HOP-62) | GI50 (IGROV-1) | GI50 (M14) | GI50 (MCF7) | GI50 (MOLT-4) | GI50 (OVCAR-5) | GI50 (RPMI-8226) | GI50 (SF-295) | GI50 (SF-539) | GI50 (SK-MEL-28) | GI50 (SK-MEL-5) | GI50 (SN12C) | GI50 (SNB-75) | GI50 (U-251) | GI50 (UACC-62)
Cn1c(=O)cc(NCCc2ccccc2)[nH]c1=O | 41 µM (inactive) | 22.8 µM (inactive) | 31.6 µM (inactive) | 34.2 µM (inactive) | 29.3 | 30 µM (inactive) | 38.8 µM (inactive) | 27.8 µM (inactive) | 19.7 µM (inactive) | 35.2 µM (inactive) | > 100 µM (inactive) | 6.12 µM (inactive) | 20.9 µM (inactive) | 39.4 µM (inactive) | 67.8 µM (inactive) | 18.8 µM (inactive) | 23.3 µM (inactive) | 19.9 µM (inactive) | 61.1 µM (inactive) | 19.9 µM (inactive)
Cc1nc(N)nc(S)c1CCCNc1ccccc1 | > 100 µM (inactive) | > 100 µM (inactive) | 23.5 µM (inactive) | 79.6 µM (inactive) | > 100 | > 100 µM (inactive) | > 100 µM (inactive) | 52.4 µM (inactive) | 38 µM (inactive) | 3.21 µM (inactive) | > 100 µM (inactive) | 27.2 µM (inactive) | 56.4 µM (inactive) | 95.7 µM (inactive) | > 100 µM (inactive) | 27.5 µM (inactive) | 69.7 µM (inactive) | > 100 µM (inactive) | 68.9 µM (inactive) | 78.2 µM (inactive)
OC(COc1ccccc1)CN1CCCCC1 (stereo not given) | > 100 µM (inactive) | > 100 µM (inactive) | > 100 µM (inactive) | > 100 µM (inactive) | > 100 | > 100 µM (inactive) | > 100 µM (inactive) | > 100 µM (inactive) | > 100 µM (inactive) | > 100 µM (inactive) | > 100 µM (inactive) | > 100 µM (inactive) | > 100 µM (inactive) | > 100 µM (inactive) | > 100 µM (inactive) | > 100 µM (inactive) | > 100 µM (inactive) | > 100 µM (inactive) | > 100 µM (inactive) | > 100 µM (inactive)
COC(=O)c1cc(=O)nc2sc3cccc(C)c3n12 | 21.3 µM (inactive) | 24.6 µM (inactive) | 14.3 µM (inactive) | 28.8 µM (inactive) | 43 | > 100 µM (inactive) | 92 µM (inactive) | 33.1 µM (inactive) | 52.5 µM (inactive) | 28.6 µM (inactive) | 38 µM (inactive) | 22 µM (inactive) | 67 µM (inactive) | 34.1 µM (inactive) | 62.8 µM (inactive) | 60.7 µM (inactive) | 40.6 µM (inactive) | > 100 µM (inactive) | 22.2 µM (inactive) | 46.2 µM (inactive)
CCCCn1c2c(n(CCCC)c1=S)-c1c(n(CCCC)c(=S)n1CCCC)SSc1c(n(CCCC)c(=S)n1CCCC)-c1c(n(CCCC)c(=S)n1CCCC)SSc1c(n(CCCC)c(=S)n1CCCC)-c1c(n(CCCC)c(=S)n1CCCC)SS2 | 3.56 µM (inactive) | 10.2 µM (inactive) | 2.64 µM (inactive) | 4.72 µM (inactive) | 7.64 | 15.2 µM (inactive) | 2.43 µM (inactive) | 13.4 µM (inactive) | 12.8 µM (inactive) | 2.32 µM (inactive) | 9.12 µM (inactive) | 1.99 µM (inactive) | 10.4 µM (inactive) | 4.31 µM (inactive) | 13.6 µM (inactive) | 12 µM (inactive) | 2.8 µM (inactive) | 10.1 µM (inactive) | 2.15 µM (inactive) | 3.37 µM (inactive)
Cc1ccc2nc(/C=N/c3ccc(Cl)cc3)cc(C)c2c1 | 10.6 µM (inactive) | 1.38 µM (inactive) | 1.16 µM (inactive) | 1.08 µM (active) | 0.027 | 2.26 µM (inactive) | 0.989 µM (active) | 0.212 µM (active) | 4.7 µM (inactive) | 1.12 µM (inactive) | 3.67 µM (inactive) | 1.24 µM (inactive) | 0.798 µM (active) | 2.12 µM (inactive) | 13.4 µM (inactive) | 2.29 µM (inactive) | 5.21 µM (inactive) | 17 µM (inactive) | 8.47 µM (inactive) | 0.133 µM (active)
N#CC(Cl)CS(=O)(=O)c1ccccc1 (stereo not given) | 16.8 µM (inactive) | 3.06 µM (inactive) | 1.75 µM (inactive) | 4.34 µM (inactive) | 2.14 | > 44.6 µM (inactive) | 16.9 µM (inactive) | 4.76 µM (inactive) | 10.2 µM (inactive) | 1.34 µM (inactive) | 20.3 µM (inactive) | 3.32 µM (inactive) | 18.7 µM (inactive) | 14.9 µM (inactive) | 13.3 µM (inactive) | 15.8 µM (inactive) | 16.5 µM (inactive) | 15.2 µM (inactive) | 19.3 µM (inactive) | 12.2 µM (inactive)
